Measurements: US8450522B2, “Conformationally constrained carboxylic acid derivatives useful for treating metabolic disorders” (Amgen Inc., priority 2008, dated 2013)

What was measured:
GPR40 [1] = target: T1, GPR40 (Homo sapiens, UniProt O14842); assay: Cell-based aequorin assay (CHO cells stably transfected with GPR40 and aequorin); set-up: expressed in transfected cells; conditions: activation of human GPR40, CHO cells, 0.01% HSA
Procedure: Briefly, the Aequorin assays were performed on doubly stable CHO cells expressing GPR40 and Aequorin DNA. […] The luminescence was recorded over a period of 20 seconds with a Microlumat luminometer (Berthold).
Cell-based aequorin assays were employed to characterize the modulatory activity of compounds on the GPR40 signaling pathway. In an exemplary assay, CHO cells were stably transfected with both GPR40 and Aequorin (Euroscreen). Cells were detached from the tissue culture dish with 2 mL of trypsin (0.25% (w/v)). Trypsinization was halted with 28 mL of Hanks Buffered Salt Solution containing 20 mM Hepes (H/HBSS) and 0.01% fatty acid-free human serum albumin (HSA). Coelantrazine is added to 1 ug/mL, and the cells were incubated for 2 hours at room temperature. Compounds were dissolved in DMSO for preparation of 10 mM stock solutions. Compounds were diluted in H/HBSS containing 0.01% HSA. Serial dilutions of the test compounds were prepared to determine dose response.
Aequorin luminescence measurements were made using an EG&G Berthold 96-well luminometer, and the response was measured over a 20 second interval after cells and compounds were mixed. The maximum relative light units was plotted to determine dose response. The EC50 (effective concentration to reach 50% maximal response) was determined from the dose response plot.

GPR40 [2] = target: T1, GPR40; assay: Inositol phosphate accumulation assay (A9 cell line stably transfected with GPR40); type: cell-based; set-up: expressed in transfected cells; conditions: human GPR40, A9_GPR40 cells, 1 hour at 37° C.; read-out: IP3 EC50 (inositol phosphate assay data)
Procedure: An A9 cell line stably transfected with GPR40 (A9_GPR40) was used in IP accumulation assays. A9_GPR40 cells were plated in 96-well plates containing 20,000 cells/well in DMEM containing 10% FBS. After the cells attached to the well surface, the media was replaced with inositol free DMEM containing 10% dialyzed FBS and 1 μCi, mL ^3H-inositol and incubated for 16 hours. Compounds were diluted in HBSS/10 mM LiCl containing a desired amount of HSA and added directly to cells. Following 1 hour incubation at 37° C., the media was replaced with 100 μl of 20 mM formic acid to quench the reaction. 50 μL of the extract was then added to 100 μL of SPA beads, incubated overnight, and measured on a TopCount the following day.

T1 sequence (O14842 whole entry): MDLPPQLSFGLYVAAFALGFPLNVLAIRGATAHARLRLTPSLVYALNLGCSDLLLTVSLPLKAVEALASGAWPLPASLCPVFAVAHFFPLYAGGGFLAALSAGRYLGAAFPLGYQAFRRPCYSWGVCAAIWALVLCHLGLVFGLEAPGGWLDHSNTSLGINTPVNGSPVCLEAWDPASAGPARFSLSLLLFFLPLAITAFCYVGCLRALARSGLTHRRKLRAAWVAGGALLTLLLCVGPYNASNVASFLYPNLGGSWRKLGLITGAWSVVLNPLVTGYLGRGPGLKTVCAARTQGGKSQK

SMILES	EC50 (GPR40 [1])	EC50 (GPR40 [2])
COc1ccc(F)c(-c2c(F)cc(COc3ccc4c(c3)[C@@](C)(CC(=O)O)CC4)cc2[C@H]2CCCC2(C)C)c1 (single isomer, unassigned) [Example 35, ((1R)-6-((2-((1S)-2,2-Dimethylcyclopentyl)-2′,6-difluoro-5′-methoxy-4-biphenylyl)methoxy)-1-methyl-2,3-dihydro-1H-inden-1-yl)acetic acid or ((1R)-6-((2-((1R)-2,2-dimethylcyclopentyl)-2′,6-difluoro-5′-methoxy-4-biphenylyl)methoxy)-1-methyl-2,3-dihydro-1H-inden-1-yl)acetic acid]	100 to 1000 nM	< 10 nM
COc1ccc(F)c(-c2ccc(COc3ccc4c(c3)[C@@](C)(CC(=O)O)CC4)cc2[C@@H](OC)C(C)(C)C)c1 (single isomer, unassigned) [Example 36, ((1R)-6-((2′-Fluoro-5′-methoxy-2-((1S)-1-methoxy-2,2-dimethylpropyl)-4-biphenylyl)methoxy)-1-methyl-2,3-dihydro-1H-inden-1-yl)acetic acid or ((1R)-6-((2′-fluoro-5′-methoxy-2-((1R)-1-methoxy-2,2-dimethylpropyl)-4-biphenylyl)methoxy)-1-methyl-2,3-dihydro-1H-inden-1-yl)acetic acid]	100 to 1000 nM	< 10 nM
COc1cc(-c2ccc(COc3ccc4c(c3)[C@@](C)(CC(=O)O)CC4)cc2[C@@H]2CCCC2(C)C)c(F)cn1 (single isomer, unassigned) [Example 20, {(R)-6-[3-((S)-2,2-Dimethyl-cyclopentyl)-4-(5-fluoro-2-methoxy-pyridin-4-yl)-benzyloxy]-1-methyl-indan-1-yl}-acetic acid or diastereomer thereof]	100 to 1000 nM	< 10 nM
CC[C@]1(CC(=O)O)CCc2ccc(OCc3ccc(-c4cc(OC)ccc4F)c([C@@H](OC)C(C)(C)C)c3)cc21 (single isomer, unassigned) [Example 44]	100 to 1000 nM	10 to 100 nM
CC[C@]1(CC(=O)O)CCc2ccc(OCc3ccc(-c4cc(OC)ccc4F)c([C@H]4CCCC4(C)C)c3)cc21 (single isomer, unassigned) [Example 42]	100 to 1000 nM	10 to 100 nM
COc1ccc(F)c(-c2ccc(COc3ccc4c(c3)[C@@H](C(C)C(=O)O)CC4)cc2C(C)(C)C)c1 (single isomer, unassigned) [Example 7, (S)-2-(6-(3-t-Butyl-4-(2-fluoro-5-methoxyphenyl)benzyloxy)-2,3-dihydro-1H-inden-1-yl)propanoic acid or (R)-2-(6-(3-t-butyl-4-(2-fluoro-5-methoxyphenyl)benzyloxy)-2,3-dihydro-1H-inden-1-yl)propanoic acid]	100 to 1000 nM	100 to 1000 nM
COc1ccc(F)c(-c2ccc(COc3ccc4c(c3)[C@@H](C(C)(C)C(=O)O)CC4)cc2[C@H]2CCCC2(C)C)c1 (single isomer, unassigned) [Example 21]	100 to 1000 nM	10 to 100 nM
COc1cc(-c2ccc(COc3ccc4c(c3F)[C@@](C)(CC(=O)O)CC4)cc2[C@H]2CCCC2(C)C)c(F)cn1 (single isomer, unassigned) [Example 38, {(R)-6-[3-((S)-2,2-Dimethyl-cyclopentyl)-4-(5-fluoro-2-methoxy-pyridin-4-yl)-benzyloxy]-7-fluoro-1-methyl-indan-1-yl}-acetic acid or stereoisomer thereof]	100 to 1000 nM	10 to 100 nM
COc1cc(-c2ccc(COc3ccc4c(c3F)C(C)(CC(=O)O)CC4)cc2C2CCCC2(C)C)c(F)cn1 [Example 40, {(S)-6-[3-((S)-2,2-Dimethyl-cyclopentyl)-4-(5-fluoro-2-methoxy-pyridin-4-yl)-benzyloxy]-7-fluoro-1-methyl-indan-1-yl}-acetic acid or stereoisomer thereof]	100 to 1000 nM	100 to 1000 nM
COc1ccc(F)c(-c2ccc(COc3ccc4c(c3)[C@@](C)(CC(=O)O)CC4)cc2[C@@H]2CCCC2(C)C)c1 (single isomer, unassigned) [Example 19, {(R)-6-[2-((S)-2,2-Dimethyl-cyclopentyl)-2′-fluoro-5′-methoxy-biphenyl-4-ylmethoxy]-1-methyl-indan-1-yl}-acetic acid or diastereomer thereof]	100 to 1000 nM	< 10 nM
CCCCOc1cc(COc2ccc3c(c2)[C@@H](CC(=O)O)CC3)ccc1-c1cc(OC)ccc1F (single isomer, unassigned) [Example 17, ((1R)-6-(((2-(butyloxy)-2′-fluoro-5′-(methyloxy)-1,1′-biphenyl-4-yl)methyl)oxy)-2,3-dihydro-1H-inden-1-yl)acetic acid or ((1S)-6-(((2-(butyloxy)-2′-fluoro-5′-(methyloxy)-1,1′-biphenyl-4-yl)methyl)oxy)-2,3-dihydro-1H-inden-1-yl)acetic acid]	100 to 1000 nM	1000 to 10000 nM
COc1ccc(F)c(-c2ccc(COc3ccc4c(c3)[C@@H](CC(=O)O)CCC4)cc2C(C)(C)C)c1 (single isomer, unassigned) [Example 6, (R)-2-(7-(3-t-Butyl-4-(2-fluoro-5-methoxyphenyl)benzyloxy)1,2,3,4-tetrahydronaphthalen-1-yl)acetic acid or (S)-2-(7-(3-t-butyl-4-(2-fluoro-5-methoxyphenyl)benzyloxy)1,2,3,4-tetrahydronaphthalen-1-yl)acetic acid]	100 to 1000 nM	100 to 1000 nM
COc1ccc(F)c(-c2ccc(COc3ccc4c(c3)[C@](C)(CC(=O)O)CC4)cc2[C@H]2CCCC2(C)C)c1 (single isomer, unassigned) [Example 18, {(S)-6-[2-((S)-2,2-Dimethyl-cyclopentyl)-2′-fluoro-5′-methoxy-biphenyl-4-ylmethoxy]-1-methyl-indan-1-yl}-acetic acid or diastereomer thereof]	100 to 1000 nM	10 to 100 nM
COc1cc(-c2ccc(COc3ccc4c(c3)[C@@](C)(CC(=O)O)CC4)cc2[C@@H](OC)C(C)(C)C)c(F)cn1 (single isomer, unassigned) [Example 37, 2-((1R)-6-(4-(5-Fluoro-2-methoxypyridin-4-yl)-3-((S)-1-methoxy-2,2-dimethylpropyl)benzyloxy)-1-methyl-2,3-dihydro-1H-inden-1-yl)acetic acid or 2-((1R)-6-(4-(5-fluoro-2-methoxypyridin-4-yl)-3-(R)-1-methoxy-2,2-dimethylpropyl)benzyloxy)-1-methyl-2,3-dihydro-1H-inden-1-yl)acetic acid]	100 to 1000 nM	< 10 nM
COc1ccc(F)c(-c2ccc(COc3ccc4c(c3)[C@H]([C@@H](C)C(=O)O)CC4)cc2[C@H]2CCCC2(C)C)c1 [Example 15]	100 to 1000 nM	10 to 100 nM
COc1ccc(F)c(-c2ccc(COc3ccc4c(c3)[C@H]([C@@H](C)C(=O)O)CC4)cc2C2=CCCC2(C)C)c1 [Example 14]	100 to 1000 nM	10 to 100 nM
COc1ccc(F)c(-c2ccc(COc3ccc4c(c3)[C@@H](CC(=O)O)CC4)cc2[C@@H](OC)C(C)(C)C)c1 (single isomer, unassigned) [Example 24]	100 to 1000 nM	10 to 100 nM
COc1cc(-c2ccc(COc3ccc4c(c3F)[C@@](C)(CC(=O)O)CC4)cc2[C@@H](OC)C(C)(C)C)c(F)cn1 (single isomer, unassigned) [Example 39, {(R)-7-Fluoro-6-[4-(5-fluoro-2-methoxy-pyridin-4-yl)-3-((S)-1-methoxy-2,2-dimethyl-propyl)-benzyloxy]-1-methyl-indan-1-yl}-acetic acid or stereoisomer thereof]	100 to 1000 nM	10 to 100 nM
COc1cc(-c2ccc(COc3ccc4c(c3)[C@@H](CC(=O)O)CC4)cc2[C@H]2CCCC2(C)C)c(F)cn1 (single isomer, unassigned) [Example 23]	100 to 1000 nM	10 to 100 nM
COc1ccc(F)c(-c2ccc(COc3ccc4c(c3)C[C@H]4CC(=O)O)cc2C(C)(C)C)c1 (single isomer, unassigned) [Example 30, ((7S)-3-((2′-Fluoro-5′-methoxy-2-(2-methyl-2-propanyl)-4-biphenylyl)methoxy)bicycle[4.2.0]octa-1,3,5-trien-7-yl)acetic acid or ((7R)-3-((2′-fluoro-5′-methoxy-2-(2-methyl-2-propanyl)-4-biphenylyl)methoxy)bicycle[4.2.0]octa-1,3,5-trien-7-yl)acetic acid]	1000 to 10000 nM	
